# How the values were obtained:
# Type in all cases: in vivo
# [1] = system: kidney bean sclerotinia rot fungi (Sclerotinia sclerotiorum); assay: kidney bean sclerotinia rot test; conditions: 200 ppm foliar spray; kidney bean cv NAGAUZURA SAITO; observed after four days
# Procedure: Each of plastic pots was filled with soil and thereto Kidney bean (cv; NAGAUZURA SAITO) seeds were sown and the kidney beans were grown in a greenhouse for 8 days. Thereafter, any of the present compounds 1-1, 1-2, 1-3, 1-5, 1-10, 3-16, 3-22, 4-2, 4-3, 4-4, 4-8, or 6-2, each of which was made to a formulation according to the similar method to that of Formulation Example 6, was mixed with water so as to be a prescribed concentration (500 ppm). The adjusted solutions were sprayed to foliar parts so as to adhere adequately on the leaves of the above-mentioned kidney bean. After spraying the mixtures, the kidney beans were air-dried and a PDA medium containing hyphae of kidney bean sclerotinia rot fungi (Sclerotinia sclerotiorum) was placed on the leaves of the kidney bean. After the inoculation, all kidney beans were placed under a high humidity during only night and after four days, a lesion area was observed.
# Each of plastic pots was filled with soil and thereto Kidney bean (cv; NAGAUZURA SAITO) seeds were sown and the kidney beans were grown in a greenhouse for 8 days. […] The adjusted solutions were sprayed to foliar parts so as to adhere adequately on the leaves of the above-mentioned kidney bean. […]
# [2] = system: soybean frogeye leaf spot disease fungi (Cercospora sojina); assay: soybean frogeye leaf spot test, spraying after inoculation; conditions: 200 ppm foliar spray 5 days after inoculation; soybean cv TACHINAGAHA
# [3] = system: tomato late blight fungi (Phytophthora infestans); conditions: 500 ppm foliar spray, inoculation after 1 day; tomato cv PATIO
# [4] = system: cabbage moth (Plutella xylostella); assay: cabbage moth mortality test on cabbage seedling; conditions: 120 h, 500 ppm spray on cabbage seedling, five second instar larvae, counted after 5 days, read-out: Morality (%)
# Source text: Any of the present compounds 1-4, 1-5, 1-6, 3-9, 3-13, 3-17, 3-23, 3-25, 3-26, 3-29, 3-31, 4-1 or 5-3, each of which was made to a formulation according to the similar method to that of Formulation Example 6, was mixed with water so as to be 500 ppm. The mixtures were sprayed to foliar parts of the cabbage seedling (on the developmental stage of the second to third true leaf) that was planted in a container so as to adhere adequately on the leaves of the above-mentioned cabbage. After the spraying, the stem and leaf of the seedling was cut out and then was installed into the container that was covered with the filter paper. Five heads of cabbage moth (Plutella xylostella) at the second instar larval stages were released into the cup. After 5 days, the surviving insects were counted, and the mortality of insects was calculated by the following equation. Morality (%)={1−the number of the surviving insects/5}×100
# [5] = system: cotton aphid (Aphis gossypii); assay: cotton aphid test on cucumber seedling; conditions: 144 h, 500 ppm spray on infested cucumber seedling, counted after 6 days, read-out: Controlling value (%)
# [6] = system: wheat leaf blotch fungi (Septoria tritici); assay: wheat leaf blotch test on 45-day wheat, plants placed outside for 4 days before inoculation; conditions: 300 ppm, 200 L/ha, Formulation Example 4, wheat cv APOGEE grown 45 days
# Source text: Each of plastic pots was filled with soil and wheat (cultivar: APOGEE) was sown, and the […] grown in a greenhouse for 45 days. Then, the comparative test compound cf3, the present compound E-15, or E-16, each of which was made to a formulation according to the similar method to that of Formulation Example 4, was mixed with water so as to be 300 ppm. The mixtures were sprayed to foliar parts of the wheat by the volume of 200 L/ha. After spraying the mixtures, the […], and placed outside for 4 days. Thereafter, an aqueous suspension of the spores of wheat leaf blotch fungi (Septoria tritici) was spraying-inoculated.
# [7] = system: kidney bean sclerotinia rot fungi (Sclerotinia sclerotiorum); assay: kidney bean sclerotinia rot test, plants placed outside for 6 days before inoculation; conditions: 200 ppm foliar spray, observed after six days
# Source text: Each of plastic pots was filled with soil and kidney bean (cultivar: NAGAUZURA SAITO) was sown and grown in a greenhouse for 8 days. Then, the comparative test compound cf5, the present compound E-1, E-3, E-11, or E-16, each of which was made to a formulation according to the similar method to that of Formulation Example 6, was mixed with water so as to be 200 ppm. The mixtures were sprayed to foliar parts so as to adhere adequately on the leaves of the above-mentioned kidney bean. After spraying the mixtures, the kidney beans were air-dried, and placed outside for 6 days. Thereafter, a PDA medium containing hyphae of kidney bean sclerotinia rot fungi (Sclerotinia sclerotiorum) was placed on the leaves of the kidney bean. After the inoculation, all kidney beans were placed indoors under a high humidity during only night and after six days, a lesion area was observed.
# [8] = system: soybean frogeye leaf spot disease fungi (Cercospora sojina); assay: soybean frogeye leaf spot test, spraying before inoculation; conditions: 3.1 ppm foliar spray, inoculation after 2 days; soybean cv Tachinagaha
SMILES,pest or weed control at 500 ppm [4] [%],pest or weed control at 500 ppm [5] [%],other results
CCC(=NN=C(C)c1ccc2ccccc2c1)OCc1c(C)cccc1-n1nnn(C)c1=O [cf1],,,lesion area compared to the lesion area in an untreated kidney bean [1]: ≥ 50%; lesion area compared to the lesion area in an untreated soybean [2]: ≥ 50%
CCC(=NN=C1CCc2c(OC)cccc21)OCc1c(C)cccc1-n1nnn(C)c1=O [E-6],≥ 80,≥ 60,lesion area compared to the lesion area in an untreated tomato [3]: ≤ 30%
CCC(=NN=C(C)c1ccc(F)cc1)OCc1c(C)cccc1-n1nnn(C)c1=O [cf3],,,lesion area compared to the lesion area in an untreated wheat [6]: ≥ 80%
CCC(=NN=C(C)c1ccccc1)OCc1c(C)cccc1-n1nnn(C)c1=O [cf5],,,lesion area compared to the lesion area in an untreated kidney bean [7]: ≥ 70%; area of lesion compared to that on an untreated bean [8]: more than 70%
CC=CCON=C(C)C(C)=NN=C(CC)OCc1c(C)cccc1-n1nnn(C)c1=O [C-3],≥ 80,≥ 60,
CCC(=NN=C1CC[S+]([O-])c2ccccc21)OCc1c(C)cccc1-n1nnn(C)c1=O (stereo not drawn) [E-29],≥ 80,≥ 60,
CCC(=NN=C(C)C(C)=NOCc1cccc(C)c1)OCc1c(C)cccc1-n1nnn(C)c1=O [C-11],≥ 80,≥ 60,
CCC(=NN=C(C)c1cnccn1)OCc1c(C)cccc1-n1nnn(C)c1=O [1-4],≥ 80,≥ 60,
CCC(=NN=C(C)C(C)=NOCc1cccc(OC)c1)OCc1c(C)cccc1-n1nnn(C)c1=O [C-10],≥ 80,≥ 60,
